Tests used:
Type in all cases: functional
[1] = test system: MCF7; experiment: Cytotoxicity against human MCF7 cells by sulforhodamine B assay
[2] = Cytotoxicity against human UO31 cells by sulforhodamine B assay
[3] = test system: SN12C; experiment: Cytotoxicity against human SN12C cells by sulforhodamine B assay
[4] = test system: RXF 393; experiment: Cytotoxicity against human RXF393 cells by sulforhodamine B assay
[5] = test system: CAKI-1; experiment: Cytotoxicity against human CAKI-1 cells by sulforhodamine B assay
[6] = test system: A498; experiment: Cytotoxicity against human A498 cells by sulforhodamine B assay
[7] = test system: 786-0; experiment: Cytotoxicity against human 786-0 cells by sulforhodamine B assay
[8] = Cytotoxicity against human NCI-ADR-RES cells by sulforhodamine B assay
[9] = test system: SK-OV-3; experiment: Cytotoxicity against human SKOV3 cells by sulforhodamine B assay
[10] = test system: OVCAR-8; experiment: Cytotoxicity against human OVCAR8 cells by sulforhodamine B assay
[11] = test system: OVCAR-3; experiment: Cytotoxicity against human OVCAR3 cells by sulforhodamine B assay
[12] = test system: IGROV-1; experiment: Cytotoxicity against human IGROV1 cells by sulforhodamine B assay
[13] = test system: UACC-62; experiment: Cytotoxicity against human UACC62 cells by sulforhodamine B assay
[14] = test system: SK-MEL-5; experiment: Cytotoxicity against human SK-MEL-5 cells by sulforhodamine B assay
[15] = test system: SK-MEL-28; experiment: Cytotoxicity against human SK-MEL-28 cells by sulforhodamine B assay
[16] = test system: SK-MEL-2; experiment: Cytotoxicity against human SK-MEL-2 cells by sulforhodamine B assay
[17] = test system: MDA-MB-435; experiment: Cytotoxicity against human MDA-MB-435 cells by sulforhodamine B assay
[18] = test system: M14; experiment: Cytotoxicity against human M14 cells by sulforhodamine B assay
[19] = test system: Malme-3M; experiment: Cytotoxicity against human MALME-3M cells by sulforhodamine B assay
[20] = test system: U-251; experiment: Cytotoxicity against human U251 cells by sulforhodamine B assay
[21] = test system: SNB-75; experiment: Cytotoxicity against human SNB75 cells by sulforhodamine B assay
[22] = test system: SNB-19; experiment: Cytotoxicity against human SNB19 cells by sulforhodamine B assay
[23] = test system: SF-295; experiment: Cytotoxicity against human SF295 cells by sulforhodamine B assay
[24] = test system: SF-539; experiment: Cytotoxicity against human SF539 cells by sulforhodamine B assay
[25] = test system: SF-268; experiment: Cytotoxicity against human SF268 cells by sulforhodamine B assay
[26] = test system: KM12; experiment: Cytotoxicity against human KM12 cells by sulforhodamine B assay
[27] = test system: HCT-15; experiment: Cytotoxicity against human HCT15 cells by sulforhodamine B assay
[28] = test system: HT-29; experiment: Cytotoxicity against human HT-29 cells by sulforhodamine B assay
[29] = test system: HCC 2998; experiment: Cytotoxicity against human HCC2998 cells by sulforhodamine B assay
[30] = test system: COLO 205; experiment: Cytotoxicity against human COLO205 cells by sulforhodamine B assay
[31] = test system: NCI-H522; experiment: Cytotoxicity against human NCI-H522 cells by sulforhodamine B assay
[32] = test system: NCI-H460; experiment: Cytotoxicity against human NCI-H460 cells by sulforhodamine B assay
[33] = test system: NCI-H23; experiment: Cytotoxicity against human NCI-H23 cells by sulforhodamine B assay
[34] = test system: NCI-H226; experiment: Cytotoxicity against human NCI-H226 cells by sulforhodamine B assay
[35] = test system: SR; experiment: Cytotoxicity against human SR cells by sulforhodamine B assay
[36] = test system: RPMI-8226; experiment: Cytotoxicity against human RPMI8226 cells by sulforhodamine B assay
[37] = test system: MOLT-4; experiment: Cytotoxicity against human MOLT4 cells by sulforhodamine B assay
[38] = test system: HL-60(TB); experiment: Cytotoxicity against human HL-60(TB) cells by sulforhodamine B assay
[39] = test system: MDA-MB-468; experiment: Cytotoxicity against human MDA-MB-468 cells by sulforhodamine B assay
[40] = test system: T47D; experiment: Cytotoxicity against human T47D cells by sulforhodamine B assay
[41] = read-out: LC50 (the source's name)

In the case of `COc1ccc(C(=O)/C=C/c2ccc(/C=C/c3cc(OC)c(OC)c(OC)c3)cc2)cc1`, the GI50 [1] is reported as 2.18 µM, the TGI [1] is reported as 36.6 µM and the CC50 [1, 41] is reported as > 100 µM. The GI50 ([2]; UO-31) was 4.64 µM, the TGI ([2]; UO-31) was > 100 µM and the CC50 ([2]; UO-31, read-out: LC50 (the source's name)) was > 100 µM. For the same compound, the GI50 [3] was 9.61 µM, the TGI [3] was > 100 µM and the CC50 [3, 41] was > 100 µM. For the same compound, the GI50 [4] was 8.01 µM, the TGI [4] was 43.6 µM and the CC50 [4, 41] was > 100 µM. The GI50 [5] was 14.6 µM, the TGI [5] was > 100 µM and the CC50 [5, 41] was > 100 µM. The GI50 [6] was 18.6 µM, the TGI [6] was > 100 µM and the CC50 [6, 41] was > 100 µM. For the same compound, the GI50 [7] was 10.4 µM, the TGI [7] was 71.1 µM and the CC50 [7, 41] was > 100 µM. The GI50 [8] was 5.46 µM, the TGI [8] was > 100 µM and the CC50 [8, 41] was > 100 µM. The GI50 [9] was 15.6 µM, the TGI [9] was 64.5 µM and the CC50 [9, 41] was > 100 µM. The GI50 [10] was 3.76 µM, the TGI [10] was 61.1 µM and the CC50 [10, 41] was > 100 µM. It also gave a GI50 [11] of 3.92 µM, a TGI [11] of 14.3 µM and a CC50 [11, 41] of 74.4 µM. The GI50 [12] was 9.24 µM, the TGI [12] was 76.4 µM and the CC50 [12, 41] was > 100 µM. For the same compound, the GI50 [13] was 7.13 µM, the TGI [13] was > 100 µM and the CC50 [13, 41] was > 100 µM. For the same compound, the GI50 [14] was 3.39 µM, the TGI [14] was 19.2 µM and the CC50 [14, 41] was > 100 µM. The GI50 [15] was 1.69 µM, the TGI [15] was > 100 µM and the CC50 [15, 41] was > 100 µM. For the same compound, the GI50 [16] was 1.89 µM, the TGI [16] was > 100 µM and the CC50 [16, 41] was > 100 µM. The GI50 [17] was 4.28 µM, the TGI [17] was 47.7 µM and the CC50 [17, 41] was > 100 µM. The GI50 [18] was 9.61 µM, the TGI [18] was > 100 µM and the CC50 [18, 41] was > 100 µM. For the same compound, the GI50 [19] was 13.2 µM, the TGI [19] was > 100 µM and the CC50 [19, 41] was > 100 µM. For the same compound, the GI50 [20] was 5.09 µM, the TGI [20] was 54.7 µM and the CC50 [20, 41] was > 100 µM. The GI50 [21] was 5.5 µM, the TGI [21] was 47.7 µM and the CC50 [21, 41] was > 100 µM. For the same compound, the GI50 [22] was 21.1 µM, the TGI [22] was > 100 µM and the CC50 [22, 41] was > 100 µM. The GI50 [23] was 9.01 µM, the TGI [23] was > 100 µM and the CC50 [23, 41] was > 100 µM. For the same compound, the GI50 [24] was 12.2 µM, the TGI [24] was 78.3 µM and the CC50 [24, 41] was > 100 µM. The GI50 [25] was 6.08 µM, the TGI [25] was 88.3 µM and the CC50 [25, 41] was > 100 µM. For the same compound, the GI50 [26] was 3.75 µM, the TGI [26] was 83.9 µM and the CC50 [26, 41] was > 100 µM. For the same compound, the GI50 [27] was 2.42 µM, the TGI [27] was > 100 µM and the CC50 [27, 41] was > 100 µM. The GI50 [28] was 4.17 µM, the TGI [28] was > 100 µM and the CC50 [28, 41] was > 100 µM. For the same compound, the GI50 [29] was 38.4 µM, the TGI [29] was > 100 µM and the CC50 [29, 41] was > 100 µM. The GI50 [30] was 13.7 µM, the TGI [30] was > 100 µM and the CC50 [30, 41] was > 100 µM. For the same compound, the GI50 [31] was 3.3 µM, the TGI [31] was 30.7 µM and the CC50 [31, 41] was > 100 µM. For the same compound, the GI50 [32] was 8.65 µM, the TGI [32] was > 100 µM and the CC50 [32, 41] was > 100 µM. For the same compound, the GI50 [33] was 5.39 µM, the TGI [33] was 65.9 µM and the CC50 [33, 41] was > 100 µM. The GI50 [34] was 3.57 µM, the TGI [34] was 22.8 µM and the CC50 [34, 41] was > 100 µM. For the same compound, the GI50 [35] was 1.98 µM, the TGI [35] was > 100 µM and the CC50 [35, 41] was > 100 µM. The GI50 [36] was 2.57 µM, the TGI [36] was 8.54 µM and the CC50 [36, 41] was > 100 µM. The GI50 [37] was 3.49 µM, the TGI [37] was > 100 µM and the CC50 [37, 41] was > 100 µM. The GI50 [38] was 4.49 µM, the TGI [38] was > 100 µM and the CC50 [38, 41] was > 100 µM. The GI50 [39] was 3.39 µM, the TGI [39] was 48.7 µM and the CC50 [39, 41] was > 100 µM. For the same compound, the GI50 [40] was 6.19 µM, the TGI [40] was > 100 µM and the CC50 [40, 41] was > 100 µM.
